Results from patent US10837044B2, “Automated method for analyzing and interpreting an antimicrobial susceptibility” (FONDATION MEDITERRANEE INFECTION, priority 2014, dated 2020).

Columns and labels:
[1] = test system: Escherichia coli; test: antibiogram by diffusion on Mueller-Hinton agar with antibiotic wafers; assay type: cell-based; conditions: for resistance (I, R) or sensitivity (S): Table C1, disk loads of Table B; for resistant (I/R) or sensitive (S): Table C2, square dish
Experimental: (§1) The inoculum was prepared by making a suspension of bacteria directly from colonies put into solution in tubes of sterile water so that the solution presented accurate opacity as determined with a spectrophotometer equivalent to the opacity of a 0.5 standard in the McFarland range. This bacterial suspension concentration is standardized since a more concentrated inoculum would lead to smaller diameters for the inhibition zone, and vice versa.
(§2) The inoculum corresponds to concentrations of about 10^8 CFU/mL for Escherichia coli, Klebsiella pneumoniae, Proteus mirabilis, Klebsiella oxytoca, Enterobacter cloacea, Enterobacter aerogenes, Entercoccus faecalis, Pseudomonas aeruginosa, Staphylococcus aureus, and Staphylococcus epidermidis. These are the ten species bacteria that are encountered the most frequently in human pathologies.
(§3) 1.2) The bacterial sample was deposited on a solid culture medium in a petri dish having a diameter of 90 mm or in a square dish having a side of 120 mm, the medium being constituted by a Mueller-Hinton agar specific for (EUCAST) antibiograms. Ideally, it should be used in the 15 minutes (min) following preparation of the suspension.
(§4) Seeding was done by the method of diffusion on an agar medium by flooding in which excess bacterial suspension was added to the Mueller-Hinton agar. After homogenizing, excess liquid was discarded in order to avoid over-inoculating the dishes. It is necessary to wait beforehand for the surface of the agar to be dry in order to eliminate any trace of moisture encouraging bacterial invasion.
(§5) The disks of the antibiotic wafers were deposited within 15 min after inoculating the agar. The antibiotic impregnated disks were deposited using an automatic dispenser that placed the disks firmly on the surface of the inoculated and dried agar. The number of disks deposited per dish was limited because of inhibition zone overlap and in order to limit interference between antibiotics. It is important for the inhibition diameters to be measurable. The antibiograms were then incubated at 37° C. for 18 hours (h) to 24 h.
(§6) The antibiotic wafers were made of high quality absorbent paper with a diameter of 6 mm and they were impregnated with antibiotics at concentrations in the range 1 micrograms (μg) to 300 μg approximately, depending on the antibiotic.
(§7) In the examples below, reference disks were used as sold by the suppliers i2a (Montpellier, France), BD (Becton Dickinson, USA), Bio-Rad (Hercules, USA), Biomerieux (Marcy l′Etoile, France) containing the following antibiotics and carrying the following codes and the following doses: AMX (amoxicillin) 25 μg: AMC (amoxicillin-clavulanic acid) 20 μg-10 μg; GM for gentamicin, 15 μg; SXT (trimethoprim-sulfamethoxazole) 1.25/23.75 μg; TIC (ticarcillin) 75 μg; TCC (ticarcillin-clavulanic acid) […]; TZP (piperacillin-tazobactam) 75/10 μg; CAZ (ceftazidime) 30 μg; IMP or IPM (imipeneme) 10 μg; COL (colistin) 50 μg; FOX (cefoxitine) 30 μg; VAN (vancomycin) 30 μg; TEC (teicoplanin) 30 μg; CLI or DA (clindamycin) 2 μg; CRO (ceftriaxone) 30 μg; CIP (ciprofloxacin) 5 μg; OFX (ofloxacin) 5 μg; CTX (cefotaxime) 5 μg; AN or AK (amikacin) 30 μg; TM (tobramycin) 10 μg; FOX (cefoxitine) 30 μg; ATM (aztreonam) 30 μg; ERT (ertapenem) 10 μg; FF (fosfomycin) 200 μg; DO (doxycycline) 30 μg; K (kanamycin) 1000 μg; L (lincomycin) 15 μs; LNZ (linezolid) 10 μg; AN (nalidixic acid) 30 μg; NOR (norfloxacin) 10 μg; PT (pristinamycin) 15 μg; RA (rifampicin) 5 μg; and E (erythromycin) 15 μg.

[2] = test system: Klebsiella oxytoca; test: as above; assay type: cell-based; conditions: Table C1; K. oxytoca phenotype Wild; six wafers, disk loads of Table B
Experimental: as §1, §2, §3, §4, §5, §6, §7

[3] = test system: Klebsiella pneumoniae; test: as above; assay type: cell-based; conditions: for resistance (I, R) or sensitivity (S): Table C1, six wafers, disk loads of Table B; for resistant (I/R) or sensitive (S): Table C2, sixteen wafers, square dish
Experimental: as §1, §2, §3, §4, §5, §6, §7

[4] = test system: Pseudomonas aeruginosa; test: as above; assay type: cell-based; conditions: Table C1, six wafers, disk loads of Table B
Experimental: as §1, §2, §3, §4, §5, §6, §7

[5] = test system: Proteus mirabilis; test: as above; assay type: cell-based; conditions: Table C1, six wafers, disk loads of Table B
Experimental: as §1, §2, §3, §4, §5, §6, §7

[6] = test system: Enterobacter cloacea; test: as above; assay type: cell-based; conditions: Table C1, six wafers, disk loads of Table B
Experimental: as §1, §2, §3, §4, §5, §6, §7

[7] = test system: Enterobacter aerogenes; test: as above; assay type: cell-based; conditions: Table C1, six wafers, disk loads of Table B
Experimental: as §1, §2, §3, §4, §5, §6, §7

[8] = test system: BSBL bacteria; conditions: all of the BSBL bacteria in Table C1
Text: Synergies are generated with the method on agar by the antibiotics diffusing in the agar as a result of the fact that providing the distance between two antibiotics is small enough (in the range 2 centimeters (cm) to 2.5 cm for Gram negative bacteria) they are capable of diffusing over a common portion of the agar, and as a result it is the association of the two antibiotics in this specific location that makes it possible, where appropriate, to see the appearance of a new inhibition zone, which is the synergy zone.
In the event of synergy occurring, it is possible to see mechanisms of synergy between two antibiotics since an additional inhibition zone appears generally between the two antibiotics in question. It may be in the form of an enlargement of the diameter around the disk A going towards the disk B if A and B present mutual synergy.
The BSBL phenotype includes a synergy phenotype between ceftriaxone and clavulanic acid, and thus between CRO and TCC or AMC (for all of the BSBL bacteria in the table).

[9] = E. coli phenotype BSBL, six wafers
[10] = E. coli phenotype Carbapenemase, six wafers
[11] = E. coli phenotype Hl cephalosporinase, six wafers
[12] = E. coli phenotype Hl penicillinase, six wafers
[13] = E. coli phenotype Inhibitor resistant penicillinase, six wafers
[14] = E. coli phenotype Ll penicillinase, six wafers
[15] = E. coli phenotype Wild, six wafers in a circle
[16] = K. pneumoniae phenotype Carbapenemase
[17] = K. pneumoniae phenotype Hl cephalosporinase
[18] = K. pneumoniae phenotype Hl penicillinase
[19] = K. pneumoniae phenotype Ll penicillinase
[20] = P. aeruginosa Abnormal phenotype
[21] = P. aeruginosa phenotype Carbapenemase
[22] = P. aeruginosa phenotype Penicillinase
[23] = P. aeruginosa phenotype Selective imipenem permeability
[24] = P. mirabilis phenotype Hl cephalosporinase
[25] = P. mirabilis phenotype Hl penicillinase
[26] = P. mirabilis phenotype Inhibitor resistant penicillinase
[27] = P. mirabilis phenotype Ll penicillinase
[28] = E. coli phenotype Cephalosporinase + R to fluoroquinolones + R to cotrimoxazole + partial R to aminosides, sixteen wafers
[29] = E. coli phenotype Hl penicillinase + R to fluoroquinolones + R to cotrimoxazole + partial R to aminosides, sixteen wafers
[30] = E. coli phenotype Wild, sixteen wafers in a rectangular grid
[31] = K. pneumoniae phenotype Cephalosporinase + R to aminosides + R to cotrimoxazole

Compound | resistance (I, R) or sensitivity (S) [1, 9] | resistance (I, R) or sensitivity (S) [1, 10] | resistance (I, R) or sensitivity (S) [1, 11] | resistance (I, R) or sensitivity (S) [1, 12] | resistance (I, R) or sensitivity (S) [1, 13] | resistance (I, R) or sensitivity (S) [1, 14] | resistance (I, R) or sensitivity (S) [1, 15] | resistance (I, R) or sensitivity (S) [2] | resistance (I, R) or sensitivity (S) ([3]; K. pneumoniae phenotype BSBL) | resistance (I, R) or sensitivity (S) [3, 16] | resistance (I, R) or sensitivity (S) [3, 17] | resistance (I, R) or sensitivity (S) [3, 18] | resistance (I, R) or sensitivity (S) [3, 19] | resistance (I, R) or sensitivity (S) ([3]; K. pneumoniae phenotype Wild) | resistance (I, R) or sensitivity (S) [4, 20] | resistance (I, R) or sensitivity (S) ([4]; P. aeruginosa phenotype BSBL) | resistance (I, R) or sensitivity (S) [4, 21] | resistance (I, R) or sensitivity (S) [4, 22] | resistance (I, R) or sensitivity (S) [4, 23] | resistance (I, R) or sensitivity (S) ([4]; P. aeruginosa phenotype Wild) | further results
CO/N=C(\C(=O)N[C@@H]1C(=O)N2C(C(=O)[O-])=C(C[N+]3(C)CCCC3)CS[C@H]12)c1csc(N)n1 [FEP, cefepime] | R | R | R | S | S | S | S | S | R | R | S | S | S | S | R | I/R | R | S | S | S | resistance (I, R) or sensitivity (S) [5, 24]: R; resistance (I, R) or sensitivity (S) [5, 25]: S; resistance (I, R) or sensitivity (S) [5, 26]: S; resistance (I, R) or sensitivity (S) [5, 27]: S; resistance (I, R) or sensitivity (S) ([5]; P. mirabilis phenotype Wild): S; resistance (I, R) or sensitivity (S) ([6]; E. cloacae phenotype BSBL): R; resistance (I, R) or sensitivity (S) ([6]; E. cloacae phenotype Wild): S; resistance (I, R) or sensitivity (S) ([7]; E. aerogenes phenotype BSBL): R/I; resistance (I, R) or sensitivity (S) ([7]; E. aerogenes phenotype Wild): S
C[C@@H](O)[C@H]1C(=O)N2C(C(=O)O)=C(SCCN=CN)C[C@H]12 [IMP, imipenem] | S | R | S | S | S | S | S | S | S | R | S | S | S | S | S | S | R | S | I | S | resistant (I/R) or sensitive (S) [1, 28]: S; resistant (I/R) or sensitive (S) [1, 29]: S; resistant (I/R) or sensitive (S) [1, 30]: S; resistant (I/R) or sensitive (S) [3, 31]: S; resistant (I/R) or sensitive (S) ([3]; K. pneumoniae phenotype Wild): S; resistance (I, R) or sensitivity (S) [5, 24]: S; resistance (I, R) or sensitivity (S) [5, 25]: S; resistance (I, R) or sensitivity (S) [5, 26]: S; resistance (I, R) or sensitivity (S) [5, 27]: S; resistance (I, R) or sensitivity (S) ([5]; P. mirabilis phenotype Wild): S; resistance (I, R) or sensitivity (S) ([6]; E. cloacae phenotype BSBL): S; resistance (I, R) or sensitivity (S) ([6]; E. cloacae phenotype Wild): S; resistance (I, R) or sensitivity (S) ([7]; E. aerogenes phenotype BSBL): S; resistance (I, R) or sensitivity (S) ([7]; E. aerogenes phenotype Wild): S
piperacillin-tazobactam [TZP] | – | – | – | – | – | – | – | S | R/I | R | I/R | S/I/R | R | S | R/S | I/R | R | I/S | S | S | resistance (I, R) or sensitivity (S) ([6]; E. cloacae phenotype BSBL): R; resistance (I, R) or sensitivity (S) ([6]; E. cloacae phenotype Wild): S; resistance (I, R) or sensitivity (S) ([7]; E. aerogenes phenotype BSBL): R; resistance (I, R) or sensitivity (S) ([7]; E. aerogenes phenotype Wild): S
ticarcillin-clavulanic acid [TCC] | R | R | R | I/R | R | S | S | – | – | – | – | – | – | – | R | I/R | R | I/R | S | S | synergy phenotype between antibiotics [8]: synergy; synergy zone between two antibiotic wafers placed side by side ([1]; E. coli cephalosporinase phenotype (FIGS. 2D, 2E)): absence of a zone of synergy; synergy zone between two antibiotic wafers placed side by side ([1]; E. coli strain of BSBL phenotype, champagne-cork shaped inhibition zone): presence of a zone of synergy; resistant (I/R) or sensitive (S) [1, 28]: R; resistant (I/R) or sensitive (S) [1, 29]: I; resistant (I/R) or sensitive (S) [1, 30]: S; resistant (I/R) or sensitive (S) [3, 31]: R; resistant (I/R) or sensitive (S) ([3]; K. pneumoniae phenotype Wild): R; resistance (I, R) or sensitivity (S) [5, 24]: R; resistance (I, R) or sensitivity (S) [5, 25]: I; resistance (I, R) or sensitivity (S) [5, 26]: R; resistance (I, R) or sensitivity (S) [5, 27]: S; resistance (I, R) or sensitivity (S) ([5]; P. mirabilis phenotype Wild): S
